According to patent US20100048597A1 (Novartis AG, priority 2006, published 2010):

How the values were obtained:
Format in all cases: biochemical
CDK1/cyclinB = target: T1, CDK1/cyclinB (Homo sapiens, UniProt P06493); assay: CDK1/cyclinB kinase assay, IMAP fluorescence polarization; details: read-out: CDK1 IC50
T1 construct: purchased Millipore
Description: (§1) Kinase assays were performed on recombinant purified enzymes using the non-radioactive IMAP fluorescence polarization assay format.
(§2) Compound stocks were prepared and diluted in DMSO and were added to kinase reactions at a 1/100 dilution for a final concentration of 1% DMSO. The components were added together to final concentrations listed in the tables below and incubated for two hours at room temperature.
(§3) The reactions were stopped by addition of stop solution.
The samples were allowed to incubate for one more hour at room temperature and then the fluorescence polarization was measured.

CDK2/cyclinA = target: T2, CDK2/cyclinA (Homo sapiens, UniProt P24941); assay: CDK2/cyclinA kinase assay, IMAP fluorescence polarization
T2 construct: purchased Millipore
Description: as §1, §2, §3
CDK2: final stop concentration is 1× Developer buffer (100% A), IMAP beads 1/400
(§4) The samples were allowed to incubate for one more hour at room temperature and then the fluorescence polarization was measured. The plate normalized millipolarization (mP) values were plotted against the log of compound concentration for each compound and IC50 values were calculated using the spotfire IC50 calculator and confirmed by visual analysis.

CDK9/cyclinT1 = target: T3, CDK9/cyclinT1 (Homo sapiens, UniProt P50750); assay: CDK9/cyclinT1 kinase assay, IMAP fluorescence polarization
T3 construct: purchased Millipore
T3 sequence (P50750 whole entry): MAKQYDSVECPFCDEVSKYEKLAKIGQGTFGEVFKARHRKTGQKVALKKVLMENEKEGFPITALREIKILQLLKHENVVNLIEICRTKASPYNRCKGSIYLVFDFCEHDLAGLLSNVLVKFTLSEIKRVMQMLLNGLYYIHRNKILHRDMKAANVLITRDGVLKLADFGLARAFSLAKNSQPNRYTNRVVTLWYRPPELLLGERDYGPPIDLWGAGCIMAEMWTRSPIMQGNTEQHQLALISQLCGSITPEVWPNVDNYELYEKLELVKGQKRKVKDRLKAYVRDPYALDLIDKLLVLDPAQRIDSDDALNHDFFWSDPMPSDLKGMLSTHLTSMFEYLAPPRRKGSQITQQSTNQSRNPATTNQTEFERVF
T3 sequence (O60563 whole entry partner): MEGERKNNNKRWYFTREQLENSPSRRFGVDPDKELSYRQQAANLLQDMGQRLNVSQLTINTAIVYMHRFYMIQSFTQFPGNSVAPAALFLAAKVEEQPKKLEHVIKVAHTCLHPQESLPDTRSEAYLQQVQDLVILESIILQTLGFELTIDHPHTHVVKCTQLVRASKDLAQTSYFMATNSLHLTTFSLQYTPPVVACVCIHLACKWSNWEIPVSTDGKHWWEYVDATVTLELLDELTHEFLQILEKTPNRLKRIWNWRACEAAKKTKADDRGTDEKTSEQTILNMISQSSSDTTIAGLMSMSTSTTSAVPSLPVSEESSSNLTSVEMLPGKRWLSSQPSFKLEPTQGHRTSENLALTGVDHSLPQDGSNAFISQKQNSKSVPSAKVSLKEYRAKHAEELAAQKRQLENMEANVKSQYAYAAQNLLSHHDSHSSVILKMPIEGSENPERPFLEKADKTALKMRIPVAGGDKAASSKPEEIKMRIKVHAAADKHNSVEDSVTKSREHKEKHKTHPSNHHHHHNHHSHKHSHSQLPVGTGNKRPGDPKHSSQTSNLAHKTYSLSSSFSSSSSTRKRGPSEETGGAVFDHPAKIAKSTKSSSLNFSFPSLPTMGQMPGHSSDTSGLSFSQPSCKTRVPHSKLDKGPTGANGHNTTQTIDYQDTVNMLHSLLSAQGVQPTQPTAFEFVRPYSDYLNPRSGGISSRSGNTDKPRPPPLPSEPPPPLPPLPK
Description: as §1, §2, §3
CDK9/CDK1/CDK7: final stop concentration is 1× Developer buffer (85% A/15% B), IMAP beads 1/400
as §4

T1 sequence (P06493 whole entry): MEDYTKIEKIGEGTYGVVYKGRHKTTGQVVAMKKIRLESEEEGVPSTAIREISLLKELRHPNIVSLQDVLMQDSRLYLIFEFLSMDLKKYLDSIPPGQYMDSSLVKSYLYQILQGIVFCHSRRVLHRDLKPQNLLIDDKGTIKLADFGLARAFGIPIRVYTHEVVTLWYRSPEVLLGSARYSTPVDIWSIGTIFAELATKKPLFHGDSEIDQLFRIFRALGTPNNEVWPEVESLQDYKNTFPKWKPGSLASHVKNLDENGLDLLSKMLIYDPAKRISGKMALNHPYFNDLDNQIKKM
T1 sequence (P14635 whole entry partner): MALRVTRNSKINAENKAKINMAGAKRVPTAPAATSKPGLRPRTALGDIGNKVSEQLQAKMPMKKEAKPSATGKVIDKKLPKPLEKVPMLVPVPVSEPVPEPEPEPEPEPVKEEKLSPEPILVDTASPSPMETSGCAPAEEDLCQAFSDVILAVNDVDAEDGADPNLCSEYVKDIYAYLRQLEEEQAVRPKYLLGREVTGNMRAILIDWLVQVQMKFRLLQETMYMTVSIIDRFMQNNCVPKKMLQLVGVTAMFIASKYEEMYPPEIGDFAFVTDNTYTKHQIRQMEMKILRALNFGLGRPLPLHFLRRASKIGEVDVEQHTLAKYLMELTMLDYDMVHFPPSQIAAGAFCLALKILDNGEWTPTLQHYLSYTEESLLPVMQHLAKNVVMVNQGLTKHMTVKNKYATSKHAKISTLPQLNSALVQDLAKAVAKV

| SMILES | IC50 (CDK1/cyclinB) [µM] | IC50 (CDK2/cyclinA) [µM] | IC50 (CDK9/cyclinT1) [µM] |
| --- | --- | --- | --- |
| COc1ncccc1-c1ccnc(Nc2cccc(S(=O)(=O)N3CCCCC3)c2)n1 [Compound 107, [4-(2-Methoxy-pyridin-3-yl)-pyrimidin-2-yl]-[3-(piperidine-1-sulfonyl)-phenyl]-amine] | 5 to 15 | < 5 | < 5 |
| CNCCCN(C)c1nccc(-c2ccnc(Nc3cccc(Cl)c3)n2)c1C [Compound 9, N-{4-[2-(3-Chloro-phenylamino)-pyrimidin-4-yl]-3-methyl-pyridin-2-yl}-N,N′-dimethyl-propane-1,3-diamine] | < 5 |  | < 5 |
| Cc1cc(-c2ccnc(Nc3cccc(Cl)c3)n2)cc(NCCCN)n1 [Compound 41, N-{4-[2-(3-Chloro-phenylamino)-pyrimidin-4-yl]-6-methyl-pyridin-2-yl}-propane-1,3-diamine] | < 5 |  | < 5 |
| COCCCNc1ncccc1-c1ccnc(Nc2cccc(Cl)c2)n1 [Compound 75, (3-Chloro-phenyl)-{4-[2-(3-methoxy-propylamino)-pyridin-3-yl]-pyrimidin-2-yl}-amine] | 5 to 15 | < 5 | < 5 |
| CC(C)(C)C(=O)NCCCNc1ncccc1-c1ccnc(Nc2cccc(Cl)c2)n1 [Compound 70, N-(3-{3-[2-(3-Chloro-phenylamino)-pyrimidin-4-yl]-pyridin-2-ylamino}-propyl)-2,2-dimethyl-propionamide] | 5 to 15 | 5 to 15 | < 5 |
| Clc1cccc(Nc2nccc(-c3cccnc3Cl)n2)c1 [Compound 43, (3-Chloro-phenyl)-[4-(2-chloro-pyridin-3-yl)-pyrimidin-2-yl]-amine] | < 5 |  | < 5 |
| CCc1c(-c2ccnc(Nc3cccc(Cl)c3)n2)ccnc1NCCCN [Compound 5, N-{4-[2-(3-Chloro-phenylamino)-pyrimidin-4-yl]-3-ethyl-pyridin-2-yl}-propane-1,3-diamine] | < 5 |  | < 5 |
| Cc1cnc(NCCCN)cc1-c1ccnc(Nc2cccc(Cl)c2)n1 [Compound 39, N-{4-[2-(3-Chloro-phenylamino)-pyrimidin-4-yl]-5-methyl-pyridin-2-yl}-propane-1,3-diamine] | < 5 |  | < 5 |
| CCNS(=O)(=O)c1cccc(Nc2nccc(-c3cccnc3OC)n2)c1 [Compound 101, N-Ethyl-3-[4-(2-methoxy-pyridin-3-yl)-pyrimidin-2-ylamino]-benzenesulfonamide] | > 50 | < 5 | < 5 |
| Cc1c(-c2ccnc(Nc3cccc(Cl)c3)n2)ccnc1NCCCN [Compound 4, N-{4-[2-(3-Chloro-phenylamino)-pyrimidin-4-yl]-3-methyl-pyridin-2-yl}-propane-1,3-diamine] | < 5 |  | < 5 |
| COc1ccc(-c2ccnc(Nc3cccc(Cl)c3)n2)c(OC)n1 [Compound 118, (3-Chloro-phenyl)-[4-(2,6-dimethoxy-pyridin-3-yl)-pyrimidin-2-yl]-amine] | > 50 |  | 5 to 15 |
| CNCCCN(C)c1nccc(-c2ccnc(N(C)c3cccc(Cl)c3)n2)c1C [Compound 11, N-(4-{2-[(3-Chloro-phenyl)-methyl-amino]-pyrimidin-4-yl}-3-methyl-pyridin-2-yl)-N,N′-dimethyl-propane-1,3-diamine] | 15 to 50 |  | > 50 |
| CNc1nccc(-c2cccnc2OC)n1 [Compound 87, [4-(2-Methoxy-pyridin-3-yl)-pyrimidin-2-yl]-methyl-amine] | 15 to 50 |  | 15 to 50 |
| CC(=O)NCCCNc1nccc(-c2ccnc(Nc3cccc(CNC(C)=O)c3)n2)c1C [Compound 15, N-[3-(4-{2-[3-(Acetylamino-methyl)-phenylamino]-pyrimidin-4-yl}-3-methyl-pyridin-2-ylamino)-propyl]-acetamide] | > 50 |  | < 5 |
| Cc1c(-c2ccnc(Nc3cccc(Cl)c3)n2)ccnc1NCCCO [Compound 17, 3-{4-[2-(3-Chloro-phenylamino)-pyrimidin-4-yl]-3-methyl-pyridin-2-ylamino}-propan-1-ol] | < 5 |  | < 5 |
| CC(=O)NCCCNc1nccc(-c2ccnc(N(C)c3cccc(Cl)c3)n2)c1C [Compound 13, N-[3-(4-{2-[(3-Chloro-phenyl)-methyl-amino]-pyrimidin-4-yl}-3-methyl-pyridin-2-ylamino)-propyl]-acetamide] | > 50 |  | > 50 |
| CC(=O)OCCCNc1nccc(-c2ccnc(Nc3cccc(Cl)c3)n2)c1C [Compound 19, Acetic acid 3-{4-[2-(3-chloro-phenylamino)-pyrimidin-4-yl]-3-methyl-pyridin-2-ylamino}-propyl ester] | 5 to 15 |  | < 5 |

| SMILES | IC50 (CDK1/cyclinB) [µM] | IC50 (CDK2/cyclinA) [µM] | IC50 (CDK9/cyclinT1) [µM] |
| --- | --- | --- | --- |
| NCCCNc1cc2c(cn1)CCc1cnc(Nc3cccc(Cl)c3)nc1-2 [Compound 35, N-(3-Amino-propyl)-N-(3-chloro-phenyl)-9,10-dihydro-2,4,7-triaza-phenanthrene-3,6-diamine] | < 5 |  | < 5 |
| Cc1c(-c2ccnc(N(C)c3cccc(Cl)c3)n2)ccnc1NCCCN [Compound 8, N-(4-{2-[(3-Chloro-phenyl)-methyl-amino]-pyrimidin-4-yl}-3-methyl-pyridin-2-yl)-propane-1,3-diamine] | 15 to 50 |  | 5 to 15 |
| COc1ncccc1-c1ccnc(NC2CCCCC2)n1 [Compound 88, Cyclohexyl-[4-(2-methoxy-pyridin-3-yl)-pyrimidin-2-yl]-amine] | 15 to 50 |  | 5 to 15 |
| Cc1cnc(Nc2cccc(Cl)c2)nc1-c1ccnc(NCCCN)c1 [Compound 31, N-{4-[2-(3-Chloro-phenylamino)-5-methyl-pyrimidin-4-yl]-pyridin-2-yl}-propane-1,3-diamine] | < 5 |  | < 5 |
| CC(=O)NCCCNc1cc2c(cn1)CCc1cnc(Nc3cccc(Cl)c3)nc1-2 [Compound 36, N-{3-[3-(3-Chloro-phenylamino)-9,10-dihydro-2,4,7-triaza-phenanthren-6-ylamino]-propyl}-acetamide] | < 5 |  | < 5 |
| CC(=O)NCc1ccc(NCCCNc2nccc(-c3ccnc(Nc4cccc(Cl)c4)n3)c2C)cc1 [Compound 28, N-[4-(3-{4-[2-(3-Chloro-phenylamino)-pyrimidin-4-yl]-3-methyl-pyridin-2-ylamino}-propylamino)-benzyl]-acetamide] | 15 to 50 |  | < 5 |
| CC(=O)NCCCNc1cc(-c2cc(C)nc(Nc3cccc(Cl)c3)n2)ccn1 [Compound 34, N-(3-{4-[2-(3-Chloro-phenylamino)-6-methyl-pyrimidin-4-yl]-pyridin-2-ylamino}-propyl)-acetamide] | < 5 |  | < 5 |
| Cc1cc(-c2ccnc(NCCCN)c2)nc(Nc2cccc(Cl)c2)n1 [Compound 33, N-{4-[2-(3-Chloro-phenylamino)-6-methyl-pyrimidin-4-yl]-pyridin-2-yl}-propane-1,3-diamine] | > 50 |  | 15 to 50 |
| CCc1c(-c2ccnc(Nc3cccc(Cl)c3)n2)ccnc1NCCCNC(C)=O [Compound 7, N-(3-{4-[2-(3-Chloro-phenylamino)-pyrimidin-4-yl]-3-ethyl-pyridin-2-ylamino}-propyl)-acetamide] | < 5 |  | < 5 |
| CC(=O)N(C)CCCN(C)c1nccc(-c2ccnc(Nc3cccc(Cl)c3)n2)c1C [Compound 10, N-[3-({4-[2-(3-Chloro-phenylamino)-pyrimidin-4-yl]-3-methyl-pyridin-2-yl}-methyl-amino)-propyl]-N-methyl-acetamide] | 5 to 15 |  | < 5 |
| Cc1c(-c2ccnc(Nc3cccc(Cl)c3)n2)ccnc1NCCC(=O)O [Compound 20, 3-{4-[2-(3-Chloro-phenylamino)-pyrimidin-4-yl]-3-methyl-pyridin-2-ylamino}-propionic acid] | 5 to 15 |  | < 5 |
| CC(=O)NCCCNc1nccc2c1CCc1cnc(Nc3cccc(Cl)c3)nc1-2 [Compound 38, N-{3-[3-(3-Chloro-phenylamino)-9,10-dihydro-2,4,7-triaza-phenanthren-8-ylamino]-propyl}-acetamide] | 5 to 15 |  | < 5 |
| Cc1c(-c2ccnc(Nc3cccc(Cl)c3)n2)ccnc1NCCCNc1ccc(CN)cc1 [Compound 27, N-(4-Aminomethyl-phenyl)-N′-{4-[2-(3-chloro-phenylamino)-pyrimidin-4-yl]-3-methyl-pyridin-2-yl}-propane-1,3-diamine] | 5 to 15 |  | < 5 |
| CC(=O)NCCCNc1cc(-c2ccnc(Nc3cccc(Cl)c3)n2)c(C)cn1 [Compound 40, N-(3-{4-[2-(3-Chloro-phenylamino)-pyrimidin-4-yl]-5-methyl-pyridin-2-ylamino}-propyl)-acetamide] | 15 to 50 |  | < 5 |
| COc1ncccc1-c1ccnc(N)n1 [Compound 86, 4-(2-Methoxy-pyridin-3-yl)-pyrimidin-2-ylamine] | > 50 |  | 15 to 50 |
| CS(=O)(=O)c1cccc(Nc2nccc(-c3cccnc3Nc3cccc(S(C)(=O)=O)c3)n2)c1 [Compound 51, (3-Methanesulfonyl-phenyl)-{4-[2-(3-methanesulfonyl-phenylamino)-pyridin-3-yl]-pyrimidin-2-yl}-amine] | < 5 |  | < 5 |
